Measured values reported in paper PMC12060211, “Development of Efficient Covalent Inactivators of a Fungal Aspartate Semialdehyde Dehydrogenase” (Drug Development Research, 2025).

These molecules were tested against T1, CalASADH (C. albicans ASADH, aspartate semialdehyde dehydrogenase) (Candida albicans, UniProt Q5ALM0) (assay: time-dependent inactivation, NADPH formation at […] nm, kobs = kinact[I]/(Ki+[I])). Details: covalent; irreversible inactivation; residual activity read at pH 8.6 with 0.3 mM L-aspartate-beta-semialdehyde, 20 mM phosphate, 1.5 mM NADP.
T1 construct: gene HOM2; catalytic Cys-156; PDB 3hsk used as docking model of the same protein; ATCC 10231 is only the growth-test strain
T1 sequence (Q5ALM0 1-365): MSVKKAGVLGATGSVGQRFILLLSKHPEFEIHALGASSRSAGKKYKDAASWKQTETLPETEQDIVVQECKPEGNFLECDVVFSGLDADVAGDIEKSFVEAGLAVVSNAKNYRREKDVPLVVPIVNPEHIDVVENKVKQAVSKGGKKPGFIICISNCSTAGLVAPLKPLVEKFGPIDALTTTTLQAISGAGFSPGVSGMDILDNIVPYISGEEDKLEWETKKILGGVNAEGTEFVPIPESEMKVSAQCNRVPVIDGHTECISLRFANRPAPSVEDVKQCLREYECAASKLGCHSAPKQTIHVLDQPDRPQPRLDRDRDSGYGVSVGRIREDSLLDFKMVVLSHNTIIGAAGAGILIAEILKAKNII
Format: biochemical
`CS(=O)(=O)/C=C/c1ccc(C(N)=O)cc1` [compound 3, vinyl sulfone, R1 methyl, R2 benzamide] gave a KI (inactivation) of 531000 ± 134000 nM.
With `N[C@@H](C/C=C/S(=O)(=O)C1CC1)C(=O)O` [compound 18, vinyl sulfone, R1 cyclopropyl, R2 alanyl] the KI (inactivation) was 390 ± 93 nM.
Molecule `CS(=O)(=O)/C=C/C[C@H](N)C(=O)O` [compound 14, vinyl sulfone, R1 methyl, R2 alanyl] has a KI (inactivation) of 7600 ± 1200 nM.
With `CS(=O)(=O)CC(=O)c1ccccn1` [compound 22, sulfonyl ketone, R1 methyl, R2 2-pyridinyl] the KI (inactivation) was 6080 ± 760 nM.
`CS(=O)(=O)/C=C/c1ccc(O)cc1` [compound 1, vinyl sulfone, R1 methyl, R2 1,4-phenol] was tested, and the KI (inactivation) was 538000 ± 300000 nM.
`CS(=O)(=O)/C=C/c1ccnc2ccccc12` [compound 6, vinyl sulfone, R1 methyl, R2 4-quinoline] showed a KI (inactivation) of 4400 ± 890 nM.
With `CN(C)S(=O)(=O)/C=C/C[C@H](N)C(=O)O` [compound 15, vinyl sulfonamide, R1 dimethylamino, R2 alanyl] the KI (inactivation) was 27900 ± 4300 nM.
`NC(=O)/C=C/c1ccncc1` [compound 25, acrylamide, R1 amino, R2 4-pyridinyl] gave a KI (inactivation) of 3790 ± 1600 nM.
Work on `CS(=O)(=O)/C=C/c1ccc(O)cn1` [compound 4, vinyl sulfone, R1 methyl, R2 5-hydroxy-2-pyridine] yielded a KI (inactivation) of 610 ± 91 nM.
For `CS(=O)(=O)CC(=O)c1cccnc1` [compound 21, sulfonyl ketone, R1 methyl, R2 3-pyridinyl], the KI (inactivation) was 25900 ± 6600 nM.
`CC(=O)CS(C)(=O)=O` [compound 19, sulfonyl ketone, R1 methyl, R2 methyl] was tested, and the KI (inactivation) was 31700 ± 4900 nM.
Molecule `CS(=O)(=O)CC(=O)c1ccccc1` [compound 23, sulfonyl ketone, R1 methyl, R2 phenyl] has a KI (inactivation) of 2200 ± 770 nM.
Work on `O=S(=O)(/C=C/c1ccncc1)N1CCOCC1` [compound 11, vinyl sulfonamide, R1 2-morpholino, R2 4-pyridinyl] yielded a KI (inactivation) of 1170 ± 130 nM.
`CS(=O)(=O)/C=C/c1ccc([N+](=O)[O-])s1` [compound 5, vinyl sulfone, R1 methyl, R2 5-nitrothiophene] was tested, and the KI (inactivation) was 2100 ± 600 nM.
Work on `CS(=O)(=O)/C=C/C(N)=O` [compound 12, sulfonyl acrylamide, R1 methyl, R2 amide] yielded a KI (inactivation) of 2700 ± 620 nM.
For `O=S(=O)(/C=C/c1ccncc1)c1ccccn1` [compound 10, vinyl sulfone, R1 2-pyridinyl, R2 4-pyridinyl], the KI (inactivation) was 2200 ± 180 nM.
`O=S(=O)(/C=C/c1cccc2cnccc12)C1CC1` [compound 9, vinyl sulfone, R1 cyclopropyl, R2 5-isoquinoline] showed a KI (inactivation) of 2480 ± 410 nM.
Molecule `CS(=O)(=O)/C=C/c1cccc2cnccc12` [compound 8, vinyl sulfone, R1 methyl, R2 5-isoquinoline] has a KI (inactivation) of 650 ± 110 nM.
In the case of `CC(C)S(=O)(=O)/C=C/C[C@H](N)C(=O)O` [compound 17, vinyl sulfone, R1 isopropyl, R2 alanyl], the KI (inactivation) is reported as 760 ± 150 nM.
`CC(=O)Nc1ccc(/C=C/S(C)(=O)=O)cc1` [compound 2, vinyl sulfone, R1 methyl, R2 acetanilide] showed a KI (inactivation) of 203000 ± 83000 nM.
`O=C(/C=C/c1ccncc1)N1CCOCC1` [compound 24, acrylamide, R1 morpholino, R2 4-pyridinyl] was tested, and the KI (inactivation) was 4410 ± 850 nM.
For `CS(=O)(=O)CC(=O)c1ccncc1` [compound 20, sulfonyl ketone, R1 methyl, R2 4-pyridinyl], the KI (inactivation) was 59000 ± 22000 nM.
`CS(=O)(=O)/C=C/c1ccc2ccccc2n1` [compound 7, vinyl sulfone, R1 methyl, R2 2-quinoline] showed a KI (inactivation) of 960 ± 240 nM.
Molecule `NC(=O)/C=C/S(=O)(=O)c1ccccc1` [compound 13, sulfonyl acrylamide, R1 phenyl, R2 amide] has a KI (inactivation) of 2300 ± 320 nM.
Molecule `N[C@@H](C/C=C/S(=O)(=O)Cc1ccccc1)C(=O)O` [compound 16, vinyl sulfone, R1 benzyl, R2 alanyl] has a KI (inactivation) of 1800 ± 820 nM.
